From the supplement of paper PMC13380429

Experiments:
[1] = system: Caco-2; assay: cell viability relative to DMSO; higher = less toxic; details: 72 h
[2] = system: Calu-3; assay: as above; details: 72 h
[3] = system: HepG2; assay: as above; details: 72 h
[4] = system: U2OS; assay: as above; details: 72 h
[5] = system: Vero E6; assay: as above; details: 72 h
[6] = system: Caco-2; assay: relative viability EC50 (midpoint between 100% and the lowest measured viability); higher = less toxic; details: 72 h
[7] = system: Calu-3; assay: as above; details: 72 h
[8] = system: HepG2; assay: as above; details: 72 h
[9] = system: U2OS; assay: as above; details: 72 h
[10] = system: Vero E6; assay: as above; details: 72 h
[11] = system: Caco-2; assay: drug sensitivity score (DSS) for viability; higher = more toxic; extreme values may be limits of the assay; details: 72 h
[12] = system: Calu-3; assay: as above; details: 72 h
[13] = system: HepG2; assay: as above; details: 72 h
[14] = system: U2OS; assay: as above; details: 72 h
[15] = system: Vero E6; assay: as above; details: 72 h
[16] = system: A549-ACE2 infected with SARS-CoV-2; assay: cell count relative to DMSO; higher = less toxic; details: 24 h
[17] = system: A549-ACE2 infected with SARS-CoV-2; assay: SARS-CoV-2 infection rate relative to DMSO; higher = more infection; details: 24 h
[18] = system: A549-ACE2; assay: drug-induced phospholipidosis relative to tamoxifen; higher = more phospholipidosis
[19] = system: A549-ACE2 infected with SARS-CoV-2; assay: morphology score (similarity to uninfected cells); higher = more like uninfected cells; details: 24 h

Cn1cnc2c1c(=O)[nH]c(=O)n2C [theobromine]
cell viability [%]
Details | [1] | [2] | [3] | [4] | [5]
1 nM | 99.1 | 91.3 | 87.6 | 92.6 | 101
10 nM | 110 | 90.3 | 79.8 | 101 | 92.7
100 nM | 106 | 100 | 99.3 | 95.7 | 103
1000 nM | 121 | 97.4 | 95.7 | 97.6 | 98
10000 nM | 104 | 98.8 | 95.6 | 100 | 103

Details | drug sensitivity score | relative viability EC50 [µM]
[6] | – | > 10
[7] | – | > 10
[8] | – | > 10
[9] | – | > 10
[10] | – | > 10
[11] | 0 | –
[12] | 0 | –
[13] | 0 | –
[14] | 0 | –
[15] | 0 | –

O=c1sn(-c2cccc3ccccc23)c(=O)n1Cc1ccccc1 [tideglusib]
cell viability [%]
Details | [1] | [2] | [3] | [4] | [5]
1 nM | 95.6 | 108 | 90.7 | 98 | 97
10 nM | 90.2 | 97.7 | 106 | 101 | 96.8
100 nM | 102 | 106 | 100 | 103 | 97
1000 nM | 98.9 | 99 | 98.8 | 102 | 93.9
10000 nM | 110 | 97.2 | 103 | 97 | 100

Details | drug sensitivity score | relative viability EC50 [µM]
[6] | – | > 10
[7] | – | > 10
[8] | – | > 10
[9] | – | > 10
[10] | – | > 10
[11] | 0 | –
[12] | 0 | –
[13] | 0 | –
[14] | 0 | –
[15] | 0 | –

N#Cc1cn([C@@H]2O[C@H](CO)[C@@H](O)[C@H]2O)c2ncnc(N)c12 [toyocamycin]
cell viability [%]
Details | [1] | [2] | [3] | [4] | [5]
1 nM | 94.4 | 93 | 89.1 | 94.5 | 88.1
10 nM | 35 | 73.8 | 50.3 | 56.7 | 84.4
100 nM | 42.8 | 27.8 | 8.3 | 9.5 | 2.2
1000 nM | 34.9 | 14.5 | -0.4 | 2.5 | 2.8
10000 nM | 38.6 | 9.8 | 0.1 | 1 | 1.8

Details | drug sensitivity score | relative viability EC50 [µM]
[6] | – | 0.0025
[7] | – | 0.0244
[8] | – | 0.0098
[9] | – | 0.0125
[10] | – | 0.0194
[11] | 29.7 | –
[12] | 27.7 | –
[13] | 35.6 | –
[14] | 34.2 | –
[15] | 32.6 | –

COc1cc2c(cc1OC)-c1c/c(=N\c3c(C)cc(C)cc3C)n(C)c(=O)n1CC2 [trequinsin]
Details | SARS-CoV-2 infection rate, [17] [%] | cell count, [16] [%] | cell viability, [1] [%] | cell viability, [2] [%] | cell viability, [3] [%] | cell viability, [4] [%] | cell viability, [5] [%] | morphology score, [19]
1 nM | – | – | 97.5 | 102 | 102 | 96.8 | 92.2 | –
10 nM | – | – | 91.9 | 89.5 | 94.4 | 99.7 | 97.1 | –
100 nM | – | – | 97.2 | 94.3 | 102 | 97.6 | 97 | –
0.3 µM | 97 | 100 | – | – | – | – | – | 0.06
1000 nM | – | – | 97 | 100 | 92.8 | 99.6 | 92.7 | –
3 µM | 93 | 103 | – | – | – | – | – | 0.26
10 µM | 59 | 111 | – | – | – | – | – | 0.67
10000 nM | – | – | 86.4 | 85 | 84.1 | 95.5 | 89.1 | –
30 µM | 19 | 110 | – | – | – | – | – | 0.75

drug-induced phospholipidosis [%], [18]
Details | 0.3 µM | 0.833333 µM | 3.33333 µM | 6.66667 µM | 10 µM | 30 µM
24 h | 3.52 | 0.24 | 10.1 | 3.08 | 1.51 | 20.8
48 h | 3.24 | 1.48 | 5.48 | 3.57 | 5.51 | 32.1
72 h | 4.95 | 1.02 | 3.84 | 4.01 | 6.79 | –

Details | drug sensitivity score | relative viability EC50 [µM]
[6] | – | > 10
[7] | – | > 10
[8] | – | > 10
[9] | – | > 10
[10] | – | > 10
[11] | 0 | –
[12] | 0.2 | –
[13] | 0.9 | –
[14] | 0 | –
[15] | 0 | –

CC(C)[C@]12O[C@H]1[C@@H]1O[C@]13[C@]1(O[C@H]1C[C@H]1C4=C(CC[C@@]13C)C(=O)OC4)[C@@H]2O [triptolide]
cell viability [%]
Details | [1] | [2] | [3] | [4] | [5]
1 nM | 84.5 | 108 | 79.4 | 94 | 101
10 nM | 56.5 | 71.5 | 30 | 34.2 | 55.4
100 nM | 24.7 | 25.8 | 4.6 | 1.5 | 1.6
1000 nM | 24.7 | 34.9 | 7.7 | 1.8 | 5.4
10000 nM | 27.6 | 34.2 | 6.2 | 2.1 | 5.1

Details | drug sensitivity score | relative viability EC50 [µM]
[6] | – | 0.0058
[7] | – | 0.0121
[8] | – | 0.0036
[9] | – | 0.0063
[10] | – | 0.0108
[11] | 29.2 | –
[12] | 27.1 | –
[13] | 39.2 | –
[14] | 38.2 | –
[15] | 35.8 | –

C[C@H](CCC(=O)NCCS(=O)(=O)O)[C@H]1CC[C@H]2[C@@H]3[C@@H](O)C[C@@H]4C[C@H](O)CC[C@]4(C)[C@H]3CC[C@]12C [ursodeoxycholyltaurine]
cell viability [%]
Details | [1] | [2] | [3] | [4] | [5]
1 nM | 103 | 106 | 94.5 | 97.8 | 105
10 nM | 94.9 | 93.9 | 96.7 | 97.4 | 110
100 nM | 87.4 | 100 | 85.1 | 98.9 | 100
1000 nM | 91.8 | 104 | 97.7 | 97.2 | 101
10000 nM | 108 | 97 | 96.8 | 98.4 | 97.2

Details | drug sensitivity score | relative viability EC50 [µM]
[6] | – | > 10
[7] | – | > 10
[8] | – | > 10
[9] | – | > 10
[10] | – | > 10
[11] | 0 | –
[12] | 0 | –
[13] | 0 | –
[14] | 0 | –
[15] | 0 | –
